{"source": "patent US20190327961A1", "about": "“STABLE SOLID COMPOSITION BASED ON AN AROMATIC COMPOUND AND USES THEREOF” (priority 2016, published 2019)", "key": {"rot of clementines [1]": {"test_system": "rot of clementines", "assay": "Tracking of the rot rate of clementines in a packing station", "format": "in vivo, clementines (Afourar variety)"}, "Penicillium digitatum": {"test_system": "Penicillium digitatum", "assay": "Drenching and waxing of clementines infected by injection of spores", "format": "in vivo, clementines (Afourar variety)", "conditions": "fruits waxed only (batches 3 and 4)"}, "rot of clementines [2]": {"test_system": "rot of clementines", "assay": "Drenching and waxing of non-infected, experimentally damaged clementines", "format": "in vivo, clementines (Afourar variety)", "conditions": "washed then waxed, 27° C."}, "E. coli [3]": {"test_system": "E. coli", "assay": "Antibacterial action compared with glutaraldehyde in 96-well microplates", "format": "cell-based", "conditions": "for bacterial growth (optical density, 600-nm wavelength): E. coli, 37° C., 24 hours"}, "E. coli [4]": {"test_system": "E. coli", "assay": "Disinfection of an artificially contaminated fibroscope", "conditions": "fibroscope contaminated with E. coli, disinfectant at (1/10)"}}, "data": [{"compound": "C=CCOC(Cn1ccnc1)c1ccc(Cl)cc1Cl", "note": "(stereo not shown) [imazalil]", "values": [{"measurement": "Percentage of Rotten Fruits", "setting": "rot of clementines [1]; Storage at 8° C., Week 1", "result": 2.63, "unit": "%"}, {"measurement": "Percentage of Rotten Fruits", "setting": "rot of clementines [1]; Storage at 8° C., Week 2", "result": 1.35, "unit": "%"}, {"measurement": "Percentage of Rotten Fruits", "setting": "rot of clementines [1]; Storage at 8° C., Week 3", "result": 2.16, "unit": "%"}, {"measurement": "Percentage of Rotten Fruits", "setting": "rot of clementines [1]; Storage at 8° C., Week 4", "result": 4.67, "unit": "%"}, {"measurement": "Percentage of Rotten Fruits", "setting": "rot of clementines [1]; Storage at 25° C., Week 1", "result": 7.78, "unit": "%"}, {"measurement": "Percentage of Rotten Fruits", "setting": "rot of clementines [1]; Storage at 25° C., Week 2", "result": 6.91, "unit": "%"}, {"measurement": "Percentage of Rotten Fruits", "setting": "rot of clementines [1]; Storage at 25° C., Week 3", "result": 9.68, "unit": "%"}, {"measurement": "Percentage of Rotten Fruits", "setting": "rot of clementines [1]; Storage at 25° C., Week 4", "result": 8.43, "unit": "%"}, {"measurement": "day after infection on which rot begins", "setting": "Penicillium digitatum; P. digitatum injected, 20° C.", "result": "starting from the fourth day"}, {"measurement": "diameter of the rot", "setting": "Penicillium digitatum; after 7 days", "result": 2.55, "unit": "cm"}, {"measurement": "Percentage of the Rotten Surface on the Fruits", "setting": "rot of clementines [2]; 4 D", "result": 0, "unit": "%"}, {"measurement": "Percentage of the Rotten Surface on the Fruits", "setting": "rot of clementines [2]; 6 D", "result": 7, "unit": "%"}, {"measurement": "Percentage of the Rotten Surface on the Fruits", "setting": "rot of clementines [2]; 8 D", "result": 11, "unit": "%"}, {"measurement": "Percentage of the Rotten Surface on the Fruits", "setting": "rot of clementines [2]; 10 D", "result": 17, "unit": "%"}, {"measurement": "Percentage of the Rotten Surface on the Fruits", "setting": "rot of clementines [2]; 12 D", "result": 29, "unit": "%"}, {"measurement": "Percentage of the Rotten Surface on the Fruits", "setting": "rot of clementines [2]; 14 D", "result": 38, "unit": "%"}, {"measurement": "Percentage of the Rotten Surface on the Fruits", "setting": "rot of clementines [2]; 16 D", "result": 44, "unit": "%"}]}, {"compound": "O=CCCCC=O", "note": "[Glutaraldehyde, glutaraldehyde]", "values": [{"measurement": "inhibiting minimal concentration (CMI)", "setting": "E. coli [3]; E. coli suspension on the order of 10^8 UFC/ml, expressed as dilution", "result": "obtained only with the pure disinfectant"}, {"measurement": "bacterial growth (optical density, 600-nm wavelength)", "setting": "E. coli [3]; concentration 1", "result": 0}, {"measurement": "bacterial growth (optical density, 600-nm wavelength)", "setting": "E. coli [3]; concentration 1/10", "result": "0.13 ± 0.002"}, {"measurement": "bacterial growth (optical density, 600-nm wavelength)", "setting": "E. coli [3]; concentration 1/100", "result": "0.15 ± 0.002"}, {"measurement": "bacterial growth (optical density, 600-nm wavelength)", "setting": "E. coli [3]; concentration 1/250", "result": "0.17 ± 0.003"}, {"measurement": "bacterial growth (optical density, 600-nm wavelength)", "setting": "E. coli [3]; concentration 1/500", "result": "0.20 ± 0.002"}, {"measurement": "bacterial growth (optical density, 600-nm wavelength)", "setting": "E. coli [3]; concentration 1/750", "result": "0.20 ± 0.002"}, {"measurement": "bacterial growth (optical density, 600-nm wavelength)", "setting": "E. coli [3]; concentration 1/1,000", "result": "0.22 ± 0.012"}, {"measurement": "bacterial growth (optical density, 600-nm wavelength)", "setting": "E. coli [3]; concentration 1/2,000", "result": "0.28 ± 0.035"}, {"measurement": "bacterial growth (optical density, 600-nm wavelength)", "setting": "E. coli [3]; concentration 1/4,000", "result": "0.34 ± 0.007"}, {"measurement": "bacterial growth (optical density, 600-nm wavelength)", "setting": "E. coli [3]; concentration 1/8,000", "result": "0.47 ± 0.034"}, {"measurement": "bacterial growth (optical density, 600-nm wavelength)", "setting": "E. coli [3]; concentration 1/16,000", "result": "0.50 ± 0.005"}, {"measurement": "bacterial load After Disinfection", "setting": "E. coli [4]", "result": "Layers"}, {"measurement": "bacterial load After Disinfection", "setting": "E. coli [4]; listed as glutaraldehyde", "result": "layer of bacteria"}]}]}
